What follows are compounds tested against T1, angiotensin II type 1 receptor (Oryctolagus cuniculus, UniProt P34976) (assay: Angiotensin II antagonistic activity in isolated rabbit blood vessels (angiotensin II-induced contraction of thoracic aorta ring)). Settings: 0.1 μM compound, angiotensin II (10 nM)-induced contraction, read-out: Angiotensin II activity inhibition rate (%) at 0.1 μM concentration.
T1 construct: By using a specimen of isolated rabbit blood vessels; from tissue; host or cells: rabbit thoracic aorta ring (New Zealand White, male)
T1 sequence (P34976 1-359): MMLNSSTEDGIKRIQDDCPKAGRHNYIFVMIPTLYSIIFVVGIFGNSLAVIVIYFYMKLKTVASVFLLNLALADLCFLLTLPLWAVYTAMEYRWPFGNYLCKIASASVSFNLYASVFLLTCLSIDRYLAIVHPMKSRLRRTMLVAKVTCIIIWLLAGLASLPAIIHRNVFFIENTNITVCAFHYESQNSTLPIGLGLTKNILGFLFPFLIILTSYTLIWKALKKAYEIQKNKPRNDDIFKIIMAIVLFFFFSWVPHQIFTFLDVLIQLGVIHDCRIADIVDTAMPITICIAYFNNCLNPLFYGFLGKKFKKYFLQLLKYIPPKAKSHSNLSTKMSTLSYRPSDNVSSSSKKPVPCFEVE
Description: By using a specimen of isolated rabbit blood vessels, antagonistic activity of the compounds of the invention against angiotensin II type 1 receptor was estimated from a dose-response curve of angiotensin II-induced blood vessel contraction. Specifically, the specimen of thoracic aorta ring of a rabbit (New Zealand White: male, 2.4 to 3.0 kg) was suspended in a magnus bath filled with Krebs-Henseleite buffer (composition: 118 mM NaCl, 4.7 mM KCl, 2.55 mM CaCl2, 1.18 mM MgSO4, 1.18 mM KH2PO4, 24.88 mM NaHCO3, and 11.1 mM D-glucose), and angiotensin II (10 nM)-induced contraction was obtained in the presence of the compounds of each example (1 nmol to 10 μmol/L). During the measurement, the inside temperature of the magnus bath was maintained at 37° C. and the bath was continuously ventilated with a sufficient amount of mixed gas (95% O2 and 5% CO2). The angiotensin II-induced contraction was converted into a relative value (%) that is based on the angiotensin II (10 nM)-induced contraction in the absence of the compounds of each example. From the concentration-response curve obtained therefrom, 50% inhibition concentration (IC50 value) was calculated by using SAS Preclinical Package Ver 5.0 (trade name, manufactured by SAS institute Japan Co., Tokyo, Japan), which is a statistical analysis program.

| Structure (SMILES) | inhibition at 0.1 µM |
| --- | --- |
| CCCCc1nc(C)n(-c2ncc(OCC)cn2)c(=O)c1Cc1ccc(-c2ccccc2S(=O)(=O)NC(=O)C2CCCCC2)cc1 [Example 10, N-{4′-{[4-butyl-1-(5-ethoxypyrimidin-2-yl)-2-methyl-6-oxo-1,6-dihydropyrimidin-5-yl]methyl}biphenyl-2-ylsulfonyl}cyclohexanecarboxamide] | 81.9% |
| CCCCc1nc(C)n(-c2ncc(OC)cn2)c(=O)c1Cc1ccc(-c2ccccc2S(=O)(=O)NC(=O)C2CCCCC2)cc1 [Example 5, N-{4′-{[4-butyl-1-(5-methoxypyrimidin-2-yl)-2-methyl-6-oxo-1,6-dihydropyrimidin-5-yl]methyl}biphenyl-2-ylsulfonyl}cyclohexanecarboxamide] | 92.4% |
| CCCCc1nc(C)n(-c2ncc(OC)cn2)c(=O)c1Cc1ccc(-c2ccccc2S(=O)(=O)NC(=O)CC)cc1 [Example 1, N-{4′-{[4-butyl-1-(5-methoxypyrimidin-2-yl)-2-methyl-6-oxo-1,6-dihydropyrimidin-5-yl]methyl}biphenyl-2-ylsulfonyl}propionamide] | 71.7% |
| CCCCc1nc(C)n(-c2ncc(OC)cn2)c(=O)c1Cc1ccc(-c2ccccc2S(=O)(=O)NC(=O)C2CC2)cc1 [Example 3, N-{4′-{[4-butyl-1-(5-methoxypyrimidin-2-yl)-2-methyl-6-oxo-1,6-dihydropyrimidin-5-yl]methyl}biphenyl-2-ylsulfonyl}cyclopropanecarboxamide] | 90% |
| CCCCCC(=O)NS(=O)(=O)c1ccccc1-c1ccc(Cc2c(CCCC)nc(C)n(-c3ncc(OC)cn3)c2=O)cc1 [Example 2, N-{4′-{[4-butyl-1-(5-methoxypyrimidin-2-yl)-2-methyl-6-oxo-1,6-dihydropyrimidin-5-yl]methyl}biphenyl-2-ylsulfonyl}hexanamide] | 91.9% |
| CCCCCC(=O)NS(=O)(=O)c1ccccc1-c1ccc(Cc2c(CCCC)nc(C)n(-c3ncc(OCC)cn3)c2=O)cc1 [Example 7, N-{4′-{[4-butyl-1-(5-ethoxypyrimidin-2-yl)-2-methyl-6-oxo-1,6-dihydropyrimidin-5-yl]methyl}biphenyl-2-ylsulfonyl}hexanamide] | 89.3% |
| CCCCc1nc(C)n(-c2ncc(OC)cn2)c(=O)c1Cc1ccc(-c2ccccc2S(=O)(=O)NC(=O)C2CCCC2)cc1 [Example 4, N-{4′-{[4-butyl-1-(5-methoxypyrimidin-2-yl)-2-methyl-6-oxo-1,6-dihydropyrimidin-5-yl]methyl}biphenyl-2-ylsulfonyl}cyclopentanecarboxamide] | 100% |
| CCCCc1nc(C)n(-c2ncc(OCC)cn2)c(=O)c1Cc1ccc(-c2ccccc2S(=O)(=O)NC(=O)C2CC2)cc1 [Example 8, N-{4′-{[4-butyl-1-(5-ethoxypyrimidin-2-yl)-2-methyl-6-oxo-1,6-dihydropyrimidin-5-yl]methyl}biphenyl-2-ylsulfonyl}cyclopropanecarboxamide] | 77.5% |

What follows are compounds tested against T2, human PPARγ2 (Homo sapiens, UniProt P37231) (assay: PPARγ activation activity, Gal4-PPARγ2 LBD luciferase transfection assay in COST cells). Settings: Gal4-human PPARγ2 LBD luciferase reporter, 16 hours, rosiglitazone = 100%.
T2 construct: the amino acids 182 to 505 of human PPARγ2; expressed in transfected cells
T2 sequence (P37231 182-505): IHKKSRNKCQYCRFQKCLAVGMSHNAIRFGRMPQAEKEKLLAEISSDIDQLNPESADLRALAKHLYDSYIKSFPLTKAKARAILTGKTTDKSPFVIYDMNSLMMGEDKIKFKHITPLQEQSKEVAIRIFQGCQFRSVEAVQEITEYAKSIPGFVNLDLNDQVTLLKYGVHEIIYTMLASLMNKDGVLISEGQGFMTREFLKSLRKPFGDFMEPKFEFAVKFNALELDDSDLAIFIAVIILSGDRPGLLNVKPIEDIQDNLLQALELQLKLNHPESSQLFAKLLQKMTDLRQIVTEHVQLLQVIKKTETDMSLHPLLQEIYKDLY
Type: cell-based
Description: The agonistic activity of the compounds of the invention on PPARγ was measured based on the transfection assay using COST cells (DS Pharma Biomedical Co., Ltd., Osaka, Japan), which are the cell line derived from the kidney of the African green monkey. COST cells were cultured under 5% CO2 concentration, and DMEM medium containing 10% fetal bovine serum, glutamic acid, and antibiotics was used as a medium.
As an expression vector, a chimera in which DNA binding domain of Gal4, which is a yeast transcription factor, and ligand binding domain of human PPARγ2 are fused, i.e., a fused product between the amino acids 1 to 147 of Gal4 transcription factor and the amino acids 182 to 505 of human PPARγ2, was used. Furthermore, as a reporter vector, a firefly luciferase containing five copies of Gal4 recognition sequence in the promoter region was used. Plasmid transfection to the cells was performed according to a method which uses jetPEI (trade name, manufactured by Funakoshi Co., Ltd., Tokyo, Japan). Furthermore, β-galactosidase expression vector was employed as an internal standard.
After the transfection of the cells, the medium was replaced with a DMEM medium (containing 1% serum) added with the compound, and the cells were further cultured for 16 hours. After that, the luciferase activity and β-galactosidase activity in the cell lysis solution were measured.
For the present test, dimethyl sulfoxide (DMSO) was used for dissolution and dilution of the test compounds, and during the cell treatment, the DMSO concentration in DMEM medium (containing 1% serum) was adjusted to 0.1%. As a positive compound, rosiglitazone (trade name, manufactured by ALEXIS Corporation, Switzerland) was used. The luciferase activity (%) of the test compounds (1 to 30 μmol/L) was calculated when the luciferase activity of rosiglitazone (3 to 10 μmol/L) is 100% and the luciferase activity in the absence of the test compound is 0%. The 50% effective concentration of the test compound (EC50, 50% effect concentration) was calculated by using SAS Preclinical Package Ver 5.0 (trade name, manufactured by SAS institute Japan Co., Tokyo, Japan), which is a statistical analysis program.
Under the same condition, the PPARγ activation activity of telmisartan, i.e., EC50, was 1 to 5 μM. In addition, it was confirmed that compounds of Examples not shown in Table 2 also have PPARγ activation activity at a concentration of 30 μM.

| Structure (SMILES) | EC50 |
| --- | --- |
| CCCCc1nc(C(C)C)n(-c2ncc(OCC)cn2)c(=O)c1Cc1ccc(-c2ccccc2S(=O)(=O)NC(=O)C2CC2)cc1 [Example 14, N-{4′-{[4-butyl-1-(5-ethoxypyrimidin-2-yl)-2-isopropyl-6-oxo-1,6-dihydropyrimidin-5-yl)methyl)biphenyl-2-ylsulfonyl]cyclopropanecarboxamide] | 1.36 µM |
| CCCCc1nc(C2CC2)n(-c2ncc(OC)cn2)c(=O)c1Cc1ccc(-c2ccccc2S(=O)(=O)NC(=O)C2CC2)cc1 [Example 15, N-{4′-{[4-butyl-2-cyclopropyl-1-(5-methoxypyrimidin-2-yl)-6-oxo-1,6-dihydropyrimidin-5-yl)methyl)biphenyl-2-ylsulfonyl]cyclopropanecarboxamide] | 1.05 µM |
| CCCCc1nc(CC)n(-c2ncc(OCC)cn2)c(=O)c1Cc1ccc(-c2ccccc2S(=O)(=O)NC(=O)C2CC2)cc1 [Example 13, N-{4′-{[4-butyl-1-(5-ethoxypyrimidin-2-yl)-2-ethyl-6-oxo-1,6-dihydropyrimidin-5-yl]methyl}biphenyl-2-ylsulfonyl}cyclopropanecarboxamide] | 2.79 µM |
| CCCCc1nc(C)n(-c2ncc(OC(F)F)cn2)c(=O)c1Cc1ccc(-c2ccccc2S(=O)(=O)NC(=O)C2CC2)cc1 [Example 11, N-{4′-{{4-butyl-1-[5-(difluoromethoxy)pyrimidin-2-yl]-2-methyl-6-oxo-1,6-dihydropyrimidin-5-yl}methyl}biphenyl-2-ylsulfonyl}cyclopropanecarboxamide] | 3.37 µM |
| CCCCc1nc(C2CCC2)n(-c2ncc(OCC)cn2)c(=O)c1Cc1ccc(-c2ccccc2S(=O)(=O)NC(=O)C2CC2)cc1 [Example 17, N-{4′-{[4-butyl-2-cyclobutyl-1-(5-ethoxypyrimidin-2-yl)-6-oxo-1,6-dihydropyrimidin-5-yl]methyl}biphenyl-2-ylsulfonyl}cyclopropanecarboxamide] | 0.96 µM |
| CCCCc1nc(C2CCCC2)n(-c2ncc(OCC)cn2)c(=O)c1Cc1ccc(-c2ccccc2S(=O)(=O)NC(=O)C2CC2)cc1 [Example 18, N-{4′-{[4-butyl-2-cyclopentyl-1-(5-ethoxypyrimidin-2-yl)-6-oxo-1,6-dihydropyrimidin-5-yl]methyl}biphenyl-2-ylsulfonyl}cyclopropanecarboxamide] | 0.71 µM |
| CCCCCC(=O)NS(=O)(=O)c1ccccc1-c1ccc(Cc2c(CCCC)nc(C)n(-c3ncc(OCC)cn3)c2=O)cc1 [Example 7, N-{4′-{[4-butyl-1-(5-ethoxypyrimidin-2-yl)-2-methyl-6-oxo-1,6-dihydropyrimidin-5-yl]methyl}biphenyl-2-ylsulfonyl}hexanamide] | 2.21 µM |
| CCCCc1nc(C2CC2)n(-c2ncc(OCC)cn2)c(=O)c1Cc1ccc(-c2ccccc2S(=O)(=O)NC(=O)C2CC2)cc1 [Example 16, N-{4′-{[4-butyl-2-cyclopropyl-1-(5-ethoxypyrimidin-2-yl)-6-oxo-1,6-dihydropyrimidin-5-yl]methyl}biphenyl-2-ylsulfonyl}cyclopropanecarboxamide] | 2.35 µM |
| CCCCc1nc(C2CCCCC2)n(-c2ncc(OCC)cn2)c(=O)c1Cc1ccc(-c2ccccc2S(=O)(=O)NC(=O)C2CC2)cc1 [Example 19, N-{4′-{[4-butyl-2-cyclohexyl-1-(5-ethoxypyrimidin-2-yl)-6-oxo-1,6-dihydropyrimidin-5-yl]methyl}biphenyl-2-ylsulfonyl}cyclopropanecarboxamide] | 0.51 µM |
| CCCc1nc2c(C)cc(-c3nc4ccccc4n3C)cc2n1Cc1ccc(-c2ccccc2C(=O)O)cc1 [telmisartan, reference compound] | 1 to 5 µM |
| CCCCc1nc(C)n(-c2ncc(OCC)cn2)c(=O)c1Cc1ccc(-c2ccccc2S(=O)(=O)NC(=O)C2CC2)cc1 [Example 8, N-{4′-{[4-butyl-1-(5-ethoxypyrimidin-2-yl)-2-methyl-6-oxo-1,6-dihydropyrimidin-5-yl]methyl}biphenyl-2-ylsulfonyl}cyclopropanecarboxamide] | 3.69 µM |

Source: patent US20120122906A1, “NOVEL SULFONAMIDE DERIVATIVE AND PHARMACEUTICAL PRODUCT CONTAINING SAME” (KOWA COMPANY, LTD., priority 2009, published 2012)
